Source: patent US6900193B1, “Structural modification of 19-norprogesterone I: 17-α-substituted-11-β-substituted-4-aryl and 21-substituted 19-norpregnadienedione as new antiprogestational agents” (The United States of America as represented by the …, priority 1996, dated 2005)

Assays:
[1] = test system: progesterone-induced endometrial proliferation; assay: AntiMcGinty test; type: in vivo, rabbit; conditions: for ANTIPROGESTATIONAL Anti-McGinty: relative potency, CDB-2914 = 100 (assigned), intraluminal, rabbit
Procedure: AntiMcGinty Test (McGinty, et al., Endocrinology, 24:829-832 (1939))
Immature female rabbits of the New Zealand White breed (approx. 1 kg body weight) were maintained under standard laboratory conditions and received a subcutaneous injection of 5 μg estradiol in 10% ethanol/sesame oil daily for 6 consecutive days. Twenty-four hours after the last injection of estradiol (day 7) animals underwent sterile abdominal surgery to ligate a 3-4 cm segment of both uterine horns. The experimental compound in appropriate solvent (usually 10% ethanol/sesame oil) was injected intraluminally into the ligated segment of one uterine horn and the vehicle alone into the ligated segment of the contralateral horn. Injection volume was limited to 0.1 ml, and care was taken to prevent leakage. A stimulating dose of progesterone (0.8 mg/day) was administered subcutaneously to each rabbit daily for the next three days (days 7, 8 and 9) for the purpose of inducing endometrial proliferation. All animals were sacrificed on day 10 when a segment central to the ligatures was removed and fixed in 10% neutral buffered formalin and submitted for histological processing. Five micron sections stained with hematoxylin and eosin (H&E) were evaluated microscopically for the degree of endometrial glandular proliferation according to the method of McPhail (McPhail, J. Physiol., 83:145 (1934). The percent inhibition of endometrial proliferation for each rabbit was calculated and the mean of the group of five animals recorded.

[2] = molecular target: T1, glucocorticoid receptor (estrogen-primed rabbit thymus) (Oryctolagus cuniculus, UniProt P59667); assay: Relative binding affinity, glucocorticoid receptor; conditions: for RELATIVE BINDING AFFINITY Glucocorticoid / BINDING AFFINITY Glucocortic: estrogen-primed rabbit thymus, dexamethasone = 100%; for BINDING AFFINITY Glucocortic: Table 2
T1 construct: preparation of cytosols for the progesterone and glucocorticoid receptor assays; from tissue; host or cells: thymus of estradiol-primed immature female New Zealand White rabbits (cytosol)
T1 sequence (P59667 1-772): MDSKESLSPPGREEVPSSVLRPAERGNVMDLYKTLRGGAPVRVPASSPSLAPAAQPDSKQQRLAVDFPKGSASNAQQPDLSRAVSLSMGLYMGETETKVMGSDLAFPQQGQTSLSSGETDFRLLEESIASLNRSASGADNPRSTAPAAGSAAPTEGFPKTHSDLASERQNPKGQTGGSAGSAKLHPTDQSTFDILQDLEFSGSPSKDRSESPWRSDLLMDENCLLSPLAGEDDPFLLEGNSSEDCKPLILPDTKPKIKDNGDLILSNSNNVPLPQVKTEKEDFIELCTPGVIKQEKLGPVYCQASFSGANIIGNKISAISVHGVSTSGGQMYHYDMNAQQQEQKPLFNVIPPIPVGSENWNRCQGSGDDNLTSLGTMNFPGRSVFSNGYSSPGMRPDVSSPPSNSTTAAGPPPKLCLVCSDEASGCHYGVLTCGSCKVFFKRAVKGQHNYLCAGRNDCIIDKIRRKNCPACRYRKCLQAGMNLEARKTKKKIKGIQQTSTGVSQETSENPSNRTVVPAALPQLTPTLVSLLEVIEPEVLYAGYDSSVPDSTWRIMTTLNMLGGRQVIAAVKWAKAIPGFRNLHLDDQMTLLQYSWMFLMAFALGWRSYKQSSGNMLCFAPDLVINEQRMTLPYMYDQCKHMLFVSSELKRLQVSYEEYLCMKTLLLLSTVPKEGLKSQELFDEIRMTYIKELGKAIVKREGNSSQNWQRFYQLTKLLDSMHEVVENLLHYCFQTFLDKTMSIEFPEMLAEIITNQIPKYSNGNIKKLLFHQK
Procedure: (§1) Relative Binding Affinities for the Progesterone and Glucocorticoid Receptors
(§2) Uteri and thymus glands were obtained from estradiol-primed immature female rabbits of the New Zealand White strain for preparation of cytosols for the progesterone and glucocorticoid receptor assays, respectively. Tissues were excised and immediately placed in ice cold TEGDM buffer (10 mM Tris, pH 7.4; 1.5 mM EDTA; 10% glycerol vol/vol/; 1 mM dithiothreitol [DTT]; and 20 mM sodium molybdate). The tissues were dissected free of connective tissue and fat, weighed and minced finely. Minced tissues were homogenized in 3 volumes TEGDM/gm with four 10 second bursts of a VirTis Cyclone set at half maximum speed with a 30 second cooling period (in ice) between bursts. Homogenates were centrifuged at 109,663 g at 4° C. for 1 hour to yield the soluble cytosol fiction. Aliquots of cytosol were snap frozen and stored at −75° C.
(§3) All binding assays were carried out at 2-6° C. for 16-18 hours. The following radioactive ligands were used: [1,2-^3H(N)]-progesterone (50.0 Ci/mmole) for the progesterone receptor (PR). […] For the progesterone receptor RBA assays 0.02 ml uterine cytosol or TEDGM buffer, 0.05 ml of various concentrations of test compounds or progesterone, 0.13 ml TEGDM buffer and 0.05 ml [^3H]-progesterone were added to duplicate tubes. For the glucocorticoid receptor RBA assays 0.1 ml thymus cytosol or TEDGM buffer, 0.05 ml of various concentrations of test compounds or dexamethasone, 0.05 ml TEGDM buffer and 0.05 ml [3H]-dexamethasone were added to duplicate tubes. For the estrogen receptor RBA assays 0.05 ml uterine cytosol, 0.1 ml TEGDM buffer, 0.05 ml of various concentrations of test compounds or estradiol and 0.05 ml [^3H]-estradiol were added to duplicate tubes. The concentrations of the test compounds, progesterone, dexamethasone and estradiol ranged from 0.05 to 100 nM and the concentrations of the competitors ranged from 0.5 to 500 nM. Total binding was measured at radioligand concentrations of 3.5 nM and nonspecific binding was measured in the presence of a 200-fold excess of unlabeled progesterone (PR), dexamethasone (GR) or diethylstilbestrol (ER), respectively.
(§4) In all incubations bound and free ligand were separated using dextra-coated charcoal (DCC). A 0.1 ml aliquot of DCC (0.5% charcoal/0.05% Dextran T-70) was added to each tube. The tubes were vortexed and incubated on ice for 10 minutes. Five-tenths ml TEG buffer (without DTT or molybdate) was then added to all tubes to improve supernatant recovery following centrifugation. The charcoal was pelleted by centrifugation at 2,100 g for 15 minutes at 4° C. The supernatants containing the [^3H]-steroid receptor complexes were decanted into vials containing 4 ml Optifluor (Packard Instrument Co.), vortexed, equilibrated in a liquid scintillation counter for 30 minutes and then counted for 2 minutes. This provided the quantity of receptor bound [^3H]-steroid at each competitor concentration.

[3] = molecular target: T2, progesterone receptor (estrogen-primed rabbit uterus) (Oryctolagus cuniculus, UniProt P06186); assay: Relative binding affinity, progesterone receptor; conditions: for RELATIVE BINDING AFFINITY Progesterone / BINDING AFFINITY Progester: estrogen-primed rabbit uterus, progesterone = 100%; for binding affinities compared with the standard, compound 69B: progesterone receptor implied (rabbit or human isoform A not specified); for BINDING AFFINITY Progester: Table 2
T2 construct: preparation of cytosols for the progesterone and glucocorticoid receptor assays; from tissue; host or cells: uterus of estradiol-primed immature female New Zealand White rabbits (cytosol)
T2 sequence (P06186 1-930): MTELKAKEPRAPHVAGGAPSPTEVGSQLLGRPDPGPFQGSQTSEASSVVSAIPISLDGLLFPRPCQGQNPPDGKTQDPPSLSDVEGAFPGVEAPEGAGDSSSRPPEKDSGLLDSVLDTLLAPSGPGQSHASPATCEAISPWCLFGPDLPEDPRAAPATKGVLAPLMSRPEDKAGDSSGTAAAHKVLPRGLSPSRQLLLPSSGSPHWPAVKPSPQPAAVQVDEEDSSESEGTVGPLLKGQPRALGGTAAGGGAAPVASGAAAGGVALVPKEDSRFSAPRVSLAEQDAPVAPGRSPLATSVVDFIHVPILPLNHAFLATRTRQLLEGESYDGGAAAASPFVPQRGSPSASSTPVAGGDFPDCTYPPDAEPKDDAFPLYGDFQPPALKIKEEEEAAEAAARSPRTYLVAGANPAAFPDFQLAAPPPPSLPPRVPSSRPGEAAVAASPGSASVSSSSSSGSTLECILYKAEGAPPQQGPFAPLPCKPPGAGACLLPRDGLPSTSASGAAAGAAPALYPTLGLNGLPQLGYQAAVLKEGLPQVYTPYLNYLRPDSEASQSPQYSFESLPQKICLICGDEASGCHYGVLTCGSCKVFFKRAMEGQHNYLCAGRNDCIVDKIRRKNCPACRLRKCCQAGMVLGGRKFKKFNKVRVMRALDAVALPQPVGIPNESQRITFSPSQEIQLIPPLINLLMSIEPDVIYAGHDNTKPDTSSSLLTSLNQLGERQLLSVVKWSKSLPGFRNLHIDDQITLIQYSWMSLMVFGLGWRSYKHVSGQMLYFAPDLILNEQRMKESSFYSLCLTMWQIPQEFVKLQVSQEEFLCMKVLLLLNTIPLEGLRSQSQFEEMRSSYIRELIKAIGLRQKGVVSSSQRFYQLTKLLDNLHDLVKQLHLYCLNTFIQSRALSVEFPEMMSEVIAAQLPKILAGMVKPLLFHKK
Procedure: as §1, §2, §3, §4

[4] = test system: progesterone-induced endometrial proliferation; assay: AntiClauberg test; type: in vivo, rabbit; conditions: oral; for BIOLOGICAL ACTIVITY antiClauberg: Table 2, CDB-2914 = 100 (assigned)
Procedure: AntiClauberg Test (Clauberg, C., Zentr. Gynakol., 54:2757-2770 (1930)) Immature female rabbits of the New Zealand White breed (approx. 1 kg body weight) were maintained under standard laboratory conditions and received a subcutaneous injection of 5 μg estradiol in 10% ethanol/sesame oil daily for 6 consecutive days. Twenty-four hours after the last dose of estradiol (day 7) animals received progesterone by subcutaneous injection (0.8 mg/day) and the experimental compound in appropriate vehicle (usually 10% ethanol/sesame oil) orally or subcutaneously for five consecutive days. One group of rabbits received progesterone only. Twenty-four hours after the last dose all animals were sacrificed for removal of the uterus which was cleaned of all fat and connective tissue, weighed to the nearest 0.2 mg and placed in 10% neutral buffered formalin for subsequent histological processing. Five micron sections stained with hematoxylin and eosin (H&E) were evaluated microscopically for the degree of endometrial glandular proliferation according to the method of McPhail (McPhail, supra). The percent inhibition of endometrial proliferation at each dose level of the experimental compound was derived by comparison with the progesterone-stimulated animals alone.

| Structure (SMILES) | antiprogestational activity compared with the lead compound / standard, in words ([1]; antiMcGinty (and antiClauberg), versus CDB-2914 (69B)) | ANTIPROGESTATIONAL Anti-McGinty [1] | RELATIVE BINDING AFFINITY Glucocorticoid [2] [%] | RELATIVE BINDING AFFINITY Progesterone [3] [%] | binding affinities compared with the standard, compound 69B [3] | binding affinity for the progesterone receptor, in words ([3]; rabbit uterine, versus CDB-2914 (69B) where stated) | BINDING AFFINITY Glucocortic [2] [%] | binding affinity for the glucocorticoid receptor, in words ([2]; rabbit thymus, versus CDB-2914 (69B) where stated) | BIOLOGICAL ACTIVITY antiClauberg [4] | antiClauberg / oral antiprogestational activity, in words ([4]; versus the standard 69B) | BINDING AFFINITY Progester [3] [%] |
| --- | --- | --- | --- | --- | --- | --- | --- | --- | --- | --- | --- |
| CC(=O)O[C@]1(C(=O)CBr)CCC2C3CCC4=CC(=O)CCC4=C3C(c3ccc(N(C)C)cc3)C[C@@]21C (stereo partly drawn) [Compound 14B, 17α-acetoxy-21-bromo-11β-[4-(N,N-dimethylamino)phenyl]-19-norpregna-4,9-diene-3,20-dione] | did not show significant differences | 71 | 175 | 130 | binding affinities greater than that observed for the standard | did not show significant differences |  |  |  |  |  |
| CC(=O)SCC(=O)C1(O)CCC2C3CCC4=CC(=O)CCC4=C3C(c3ccc(N(C)C)cc3)CC21C (stereo not shown) [Compound 16] |  | >2 | 77 | 6 |  |  |  |  |  |  |  |
| CC(=O)O[C@]1(C(=O)CSC(C)=O)CC[C@H]2[C@@H]3CCC4=CC(=O)CCC4=C3[C@@H](c3ccc(N(C)C)cc3)C[C@@]21C [Compound 17, 17α-acetoxy-21-acetylthio-11β-[4-(N,N-dimethylamino)phenyl]-19-norpregna-4,9-diene-3,20-dione] |  | 65 | 54 | 37 |  |  |  |  |  |  |  |
| CCC(=O)[C@@]1(OC(C)=O)CCC2C3CCC4=CC(=O)CCC4=C3C(c3ccc(N(C)C)cc3)C[C@@]21C (stereo partly drawn) [Compound 28, 17α-acetoxy-21-methyl-11β-[4-(N,N-dimethylamino)phenyl]-19-norpregna-4,9-diene-3,20-dione] |  | 32 | 126 | 129 | binding affinities greater than that observed for the standard |  |  |  |  |  |  |
| C=COCC(=O)[C@@]1(OC(C)=O)CCC2C3CCC4=CC(=O)CCC4=C3C(c3ccc(N(C)C)cc3)C[C@@]21C (stereo partly drawn) [Compound 129, 17α-Acetoxy-11β-[4-(N,N-dimethylamino)phenyl]-21-(1′-ethenyloxy)-19-norpregna-4,9-diene-3,20-dione] |  |  |  |  | binding affinities greater than that observed for the standard |  | 20 | low binding affinity | 303 | greater activity than the standard | 155 |
| CC(=O)O[C@]1(C(=O)COC(=O)CN(C)C)CC[C@H]2[C@@H]3CCC4=CC(=O)CCC4=C3[C@@H](c3ccc(N(C)C)cc3)C[C@@]21C [Compound 133, 17α-Acetoxy-1-[4-(N,N-dimethylamino)phenyl]-21-(2′-N,N-dimethylamino)acetoxy-19-norpregna-4,9-diene-3,20-dione] |  |  |  |  |  |  | 13 |  | 95 |  | 82 |
| CN(C)c1ccc([C@H]2C[C@@]3(C)[C@@H](CC[C@]3(OC=O)C(=O)COC=O)[C@@H]3CCC4=CC(=O)CCC4=C32)cc1 [Compound 139, 17α,21-Diformyloxy-11β-[4-(N,N-dimethylamino)phenyl]-19-norpregna-4,9-diene-3,20-dione] |  |  |  |  |  |  | 79 |  | inactive |  | 30 |
